In the oligonucleotide strings, read from the 5' end, every base follows the letter of its sugar. An asterisk marks phosphorothioate; unmarked linkages are phosphodiester. Other units and linkages are bracketed, terminal groups are in braces. A string of capitals states the bases alone. d = 2'-deoxy (DNA)
Tests used:
meltrin α = molecular target: T1, meltrin α (Homo sapiens, UniProt O43184, E208G/T209S); experiment: Inhibition of protease activity of meltrin α (rhIGF-BP3 cleavage, western blotting); assay type: biochemical; settings: low molecular weight compound 10 μg/mL; rhIGF-BP3 band
T1 construct: had been converted to mature meltrin α having the prodomain deleted (molecular weight 68 kDa); made in house; host or cells: COS-1
T1 sequence (O43184 208-738 isoform O43184-2 E208G/T209S): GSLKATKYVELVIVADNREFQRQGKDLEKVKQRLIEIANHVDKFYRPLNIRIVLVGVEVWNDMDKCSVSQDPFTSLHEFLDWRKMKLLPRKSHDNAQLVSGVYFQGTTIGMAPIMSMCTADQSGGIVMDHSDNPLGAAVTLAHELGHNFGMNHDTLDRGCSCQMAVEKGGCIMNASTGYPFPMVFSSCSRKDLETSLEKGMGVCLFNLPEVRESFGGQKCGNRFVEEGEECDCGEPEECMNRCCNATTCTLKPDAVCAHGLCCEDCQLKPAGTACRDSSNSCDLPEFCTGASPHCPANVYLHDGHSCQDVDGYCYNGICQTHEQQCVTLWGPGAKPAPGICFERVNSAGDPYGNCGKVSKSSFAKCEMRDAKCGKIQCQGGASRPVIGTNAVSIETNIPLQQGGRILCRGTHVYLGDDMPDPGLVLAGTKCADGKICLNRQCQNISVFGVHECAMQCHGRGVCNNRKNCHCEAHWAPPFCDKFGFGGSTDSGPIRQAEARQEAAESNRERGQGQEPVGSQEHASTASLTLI
Protocol: Thrombin (Amersham Biosciences) was added to the purified meltrin α-STFLAG prepared in Example 5, and mixture was kept at 25° C. for 15 hours. When the solution after the reaction was examined by repeating the procedure of Example 5, the human meltrin α containing the prodomain (molecular weight 92 kDa) had been converted to mature meltrin α having the prodomain deleted (molecular weight 68 kDa). For measuring the enzymatic activity of the meltrin α, the solution after the prodomain cleavage with thrombin followed by inactivation of the thrombin by 10 mM APMSF (Wako Pure Chemical Industries, Ltd.) was used. The disappearance of the thrombin activity was confirmed by using the synthetic substrate for the thrombin on the reaction solution. […]
The anti-human meltrin α antibodies produced in Examples 6 and 7 were evaluated on their activity for inhibiting protease activity of meltrin α by using the protease activity assay system of Example 9. […] After the reaction, the reaction solution was electrophoresed by SDS-PAGE, and the rhIGF-BP3 was detected by western blotting.
According to the method of Example 9, activity of the low molecular weight compound for inhibiting protease activity of the meltrin α was assayed as described below. […] After the reaction, the reaction solution was electrophoresed by SDS-PAGE, and the rhIGF-BP3 was detected by western blotting.

human preadipocyte = experiment: Adipocyte proliferation and differentiation, neutral fat accumulation (Adipo Red); assay type: cell-based
Protocol: The differentiation medium was prepared by adding supplement kit PGM SingleQuots, #PT-9500, Lot.08101163 (Sanko Junyaku Co., Ltd.) to 100 mL of growth medium. 50 μL of the supernatant was removed from the 96 well plate prepared in Example 12, and 50 μL of the siRNA or the antisense oligonucleotide prepared in the differentiation medium was added, and incubation was conducted in a CO2 incubator for 5 days to 15 days.
The amount of neutral fat accumulated in the adipocyte was determined by fluorometry using Adipo Red stain.
After taking the 96 well plate out of the CO2 incubator, the plate was allowed to stand until it cooled to room temperature. The plate was centrifuged at 300 g (1200 rpm) for 10 minutes at room temperature to remove the medium. Next, the plate was gently washed with 200 μL/well of PBS (Sigma), and 200 μL/well of PBS was added to the well.
Next, 5 μL/well of Adipo Red Assay Reagent (Adipo Red, Cat. #PT-7009, Lot.3F0497, A Cambrex Company) was added, and the plate was allowed to stand at room temperature for at least 10 minutes to thereby stain the neutral fat that had accumulated in the adipocyte. The fluorescence intensity was measured in a fluorometer at an excitation wavelength of 485 nm and an emission wavelength of 535 nm to thereby determine the fat accumulation.
(§1) According to the method of Example 15, M82463 was added to the human preadipocyte incubation system at a concentration of 0.3 to 10 μg/mL so that the final concentration of the DMSO was 0.2%. As a control, a group having only the DMSO added to a final concentration of 0.2% was used.
After preparation of the antibody to the concentration of 0.100 mg/mL with physiological saline, 9 volumes of adipocyte differentiation medium was added to 1 volume of the antibody solution, and the solution was sterilized by filtering through a filter having a diameter of 0.22 μm (MILLEX-GV 0.22 μm Filter unit, 3slgv013SL, Lot. R2NN83622, MILLIPORE). […]

adipocyte = experiment: Toxicity for the adipocyte (WST1 assay); assay type: cell-based, human; settings: at the concentration used in the assay (0.3 to 10 μg/mL)
Protocol: Toxicity of the test substance to the adipocyte was examined by WST1 assay. More specifically, Premix WST-1 Cell Proliferation Assay System (Takara Shuzo Co., Ltd.) was added at 10 μL/well, and after incubating at 37° C. for 60 minutes in a CO2 incubator, absorbance (450 nm-650 nm) was measured to examine influence on the adipocyte.
as §1

meltrin α mRNA = experiment: Quantitative determination of human meltrin α expression in human preadipocyte (real time PCR); assay type: cell-based; settings: antisense DNA transfected human preadipocyte; sense oligo DNA group = 100%
Protocol: First, the human preadipocyte for use in the assay (human preadipocytes-sq donor10547, POIETICS #PT-5001, Lot.3F0242, Sanko Junyaku Co., Ltd.) which had been adjusted to a cell concentration of 1×10^5 cells/mL was added to a 96 well culture plate at 1×10^2 to 1×10^4 cells/well/100 μL, and cultured overnight. In the meanwhile, the culture medium in which preadipocytes had been suspended at 1×10^5 cells/mL was added to a 6 well plate at 1600 μL/well, and growth medium was also added to the plate at 400 μL/well, and the cells were cultured overnight. 1 μg to 50 μg of synthetic oligo DNA was added to serum free adipocyte growth medium or serum. free D-MEM, and after adding 3 μL of FuGENE6 per 1 μg of oligo DNA, the mediums were allowed to stand at room temperature for 15 to 45 minutes. From the 6 well plate described above, 400 μL/well of the medium was removed and 400 μL/well of the culture medium containing the oligo DNA was added, and the plate was incubated at 37° C. for 18 hours in the presence of 5% CO2 to evaluate the level of expression of meltrin in Example 15. […]
After removing PBS from the plate, 0.5 mL/well of Trizol Reagent (Invitrogen) was added to the plate. […] After drying, the precipitate was dissolved in water not containing RNase, and absorbance at a wavelength of 260 nm was measured to determine the RNA concentration (1OD=40 μg/mL). […]

Oc1c(C(Nc2ccccn2)c2ccccc2)ccc2cccnc12 (centres unmarked) [M82463, 7-[phenyl(pyridine-2-ylamino)methyl]quinoline-8-ol]
activity for inhibiting protease activity of meltrin α (meltrin α): suppressed the disappearance of the rhIGF-BP3
adipocyte proliferation and differentiation (human preadipocyte; 0.3 to 10 μg/mL, DMSO 0.2%): suppressed the adipocyte proliferation and differentiation in a dose dependent manner
cytotoxicity (adipocyte): no cytotoxicity was found

HS0307A: phosphorothioate antisense sequence CACGGGCAGCGGGCGCGCTGCCAT near the 5′ end of the coding region of human meltrin α (antisense dC*dA*dC*dG*dG*dG*dC*dA*dG*dC*dG*dG*dG*dC*dG*dC*dG*dC*dT*dG*dC*dC*dA*dT)
suppression of level of expression of the meltrin α (meltrin α mRNA): about 70%
accumulation of the neutral fat in the preadipocyte (human preadipocyte; 5 days after differentiation stimulation, compared to the sense sequence group): suppressed to a greater degree
